The results in this text go back to ChEMBL document CHEMBL1133804, “Naphthalene derivatives: A new series of selective cyclooxygenase-2 inhibitors” (Bioorg Med Chem Lett, 2001).

Experiment [1] deals with T1, Prostaglandin G/H synthase 1 (Rattus norvegicus, UniProt Q63921).
T1 sequence (Q63921 whole entry): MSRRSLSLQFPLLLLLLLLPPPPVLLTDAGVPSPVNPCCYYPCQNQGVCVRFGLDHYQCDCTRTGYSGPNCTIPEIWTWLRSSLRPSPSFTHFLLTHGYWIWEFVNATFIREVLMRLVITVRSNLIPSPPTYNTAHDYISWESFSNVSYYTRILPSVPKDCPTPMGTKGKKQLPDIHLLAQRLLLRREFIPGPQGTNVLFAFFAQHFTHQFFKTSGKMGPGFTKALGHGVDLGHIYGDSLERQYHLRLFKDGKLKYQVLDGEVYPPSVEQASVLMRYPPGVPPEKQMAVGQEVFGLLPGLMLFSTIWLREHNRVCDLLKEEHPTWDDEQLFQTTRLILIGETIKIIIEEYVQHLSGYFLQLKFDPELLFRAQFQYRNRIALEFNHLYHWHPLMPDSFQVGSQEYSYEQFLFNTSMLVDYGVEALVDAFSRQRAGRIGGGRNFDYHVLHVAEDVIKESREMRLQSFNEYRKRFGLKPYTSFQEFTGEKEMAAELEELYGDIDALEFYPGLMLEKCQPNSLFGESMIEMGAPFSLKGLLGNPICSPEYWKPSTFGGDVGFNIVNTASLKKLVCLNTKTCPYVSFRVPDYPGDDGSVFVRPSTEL
Description: In vitro inhibitory concentration against rat prostaglandin G/H synthase 1

Experiment [2] is filed under the species Rattus norvegicus. As to conditions: 30 mg/kg.
Description: Antiinflammatory activity in vivo by carrageenan paw edema assay in rat at a dose of 30 mg/kg; NA is not active
In experiment [3] the test system is Rattus norvegicus. Briefly: Anti-inflammatory activity in vivo by carrageenan paw edema assay in rat at a dose of 30 mg/kg. The class given is functional. (In general: In the carrageenan paw model, swelling and tenderness develop within hours.)
Experiment [4] relates to Rattus norvegicus. Description: Antiinflammatory activity in vivo by carrageenan paw edema assay in rat at a dose of 3 mg/kg. The class given is functional.
The test system of experiment [5] is Rattus norvegicus. Description: Antiinflammatory activity in vivo by carrageenan paw edema assay in rat at a dose of 10 mg/kg. As to conditions: read-out: Inhibition.
In experiment [6] the test system is Rattus norvegicus. Description: Antiinflammatory activity in vivo by carrageenan paw edema assay in rat at a dose of 3 mg/kg; NA is inactive. The class given is functional, organism-based. Set-up: dose 3 mg/kg.
Experiment [7] relates to Rattus norvegicus. Description: Antiinflammatory activity in vivo by carrageenan paw edema assay in rat at a dose of 30 mg/kg; NA is inactive. In kind it is functional, organism-based. Also noted: dose 30 mg/kg.
In experiment [8] the test system is Rattus norvegicus. Description: Antiinflammatory activity in vivo by carrageenan paw edema assay in rat; NA is inactive. In kind it is functional, organism-based.
Experiment [9] relates to Rattus norvegicus. Briefly: Antiinflammatory activity in vivo by carrageenan paw edema assay in rat at a dose of 30 mg/kg: NA is inactive. In kind it is functional, organism-based. Also noted: dose 30 mg/kg.
For experiment [10], the species on record is Rattus norvegicus. Description: Dose producing ulceration in rats. In kind it is functional.

The source made the active and inactive calls. The calls are words filed in the database; no cut-off is given here.

By IC50 is commonly meant the concentration needed to halve the response being measured. The low end stands for higher potency, the high end for lower potency. On to `COc1ccc2c(Cc3ccc(Cl)cc3)c(CC(=O)O)ccc2c1`, for which the IC50 in [1] was > 100 µM. In experiment [2], the inhibition entry is “inactive”.
As for `COc1ccc2c(Cc3cccc(Cl)c3)ccc(C(C)C(=O)O)c2c1` (stereo unspecified), the inhibition in vivo at 30 mg/kg in [3] was found to be 0%. For the same compound, the inhibition in vivo at 3 mg/kg in experiment [4] is 0%.
Consider `CS(=O)(=O)c1ccc(C2=C(c3ccccc3)C(=O)OC2)cc1` [ROFECOXIB], for which, in experiment [4], the inhibition in vivo at 3 mg/kg was determined as 41%.
In the case of `COc1ccc2c(c1)c(CC(=O)O)c(C)n2C(=O)c1ccc(Cl)cc1` [INDOMETHACIN], the inhibition in vivo at 10 mg/kg in [5] turned out to be 100%.
Compound `COc1ccc2c(Cc3ccccc3Cl)ccc(C(C)C(=O)O)c2c1` (stereo unspecified) displayed an inhibition in vivo at 30 mg/kg in experiment [3] of 13%. This compound also had an inhibition in vivo at 3 mg/kg in experiment [4] of 5%. Half-maximal inhibition in [1] (IC50) was put at 2.3 µM.
Compound `COc1ccc(Cc2ccc(C(C)C(=O)O)c3cc(OC)ccc23)cc1` (stereo unspecified) returned an inhibition in vivo at 30 mg/kg in experiment [3] of 45%. For the same compound, the inhibition in vivo at 3 mg/kg in experiment [4] was 22%. Also, the IC50 in [1] amounted to 8.8 µM.
Consider `COc1ccc2c(Cc3ccc(C(C)(C)C)cc3)ccc(C(C)C(=O)O)c2c1` (stereo unspecified), for which the inhibition in vivo at 30 mg/kg in experiment [3] amounted to 32%. Moreover, the inhibition result in experiment [6] was “inactive”. This compound also had an IC50 in [1] of 40.8 µM.
Consider `CCc1ccc(Cc2ccc(C(C)C(=O)O)c3cc(OC)ccc23)cc1` (stereo unspecified), for which the inhibition in vivo at 30 mg/kg in experiment [3] stood at 32%. Besides, the IC50 in experiment [1] is > 100 µM.
`CCOc1ccc(Cc2ccc(C(C)C(=O)O)c3cc(OC)ccc23)cc1` (stereo unspecified) displayed an inhibition in vivo at 30 mg/kg in experiment [3] of 52%. Besides, in experiment [4], the inhibition in vivo at 3 mg/kg was 27%. In addition, the IC50 in experiment [1] was > 100 µM.
On to `COc1ccc2c(Cc3ccc(C(C)=O)cc3)ccc(C(C)C(=O)O)c2c1` (stereo unspecified), for which the inhibition entry in experiment [7] and in [6] was “inactive” throughout. The same compound returned an IC50 in experiment [1] of 218 µM.
Consider `CC(C(=O)O)c1ccc(Cc2ccc(Cl)cc2)c2ccc(Cl)cc12` (stereo unspecified), for which the IC50 in experiment [1] was > 100 µM. Also, the inhibition result in [2] is “inactive”.
For `Cc1ccc(-c2cc(C(F)(F)F)nn2-c2ccc(S(N)(=O)=O)cc2)cc1` [CELECOXIB], the inhibition in vivo at 30 mg/kg in experiment [3] was 40%. In experiment [4], this compound returned an inhibition in vivo at 3 mg/kg of 41%.
As for `COc1ccc2c(Cc3ccc(Cl)cc3)cccc2c1`, in [7], the inhibition entry is “inactive”. Moreover, the IC50 in experiment [1] is > 100 µM.
In experiment [3], `CSc1ccc2c(Cc3ccc(Cl)cc3)ccc(C(C)C(=O)O)c2c1` (stereo unspecified) came in with an inhibition in vivo at 30 mg/kg of 16%. Besides, the IC50 in experiment [1] was 19.9 µM.
For the compound `CCc1ccc2c(Cc3ccc(Cl)cc3)ccc(C(C)C(=O)O)c2c1` (stereo unspecified), the inhibition entry in experiment [8] is “inactive”. The same compound came in with an IC50 in experiment [1] of 61 µM.
For `COc1ccc2c(Cc3ccc(C)cc3)ccc(C(C)C(=O)O)c2c1` (stereo unspecified), the inhibition in vivo at 30 mg/kg in [3] is 49%. The same compound displayed an inhibition in vivo at 3 mg/kg in experiment [4] of 30%. In addition, the IC50 in [1] worked out at 2.8 µM.
Regarding `CCC(C(=O)O)c1ccc(Cc2ccc(F)cc2)c2ccc(OC)cc12` (stereo unspecified), in experiment [9], the inhibition entry was “inactive”. The 50% inhibitory concentration (IC50) in [1] stood at 7.3 µM.
Regarding `COc1ccc2c(C(C)C(=O)O)ccc(Cc3ccc(F)cc3)c2c1` (stereo unspecified), the inhibition entry in experiment [7] is “inactive”. For the same compound, the IC50 in experiment [1] is > 100 µM.
`CC(C(=O)O)c1ccc(Cc2ccc(F)cc2)c2ccccc12` (stereo unspecified) showed an inhibition in vivo at 30 mg/kg in experiment [3] of 16%. The compound also had an IC50 in [1] of 2.4 µM.
As for `CC(C(=O)O)c1ccc(Cc2ccc(Cl)cc2)c2ccc(S(C)(=O)=O)cc12` (stereo unspecified), the inhibition result in experiment [3] is “inactive”. Further, the IC50 in experiment [1] was > 100 µM.
In experiment [3], `COc1ccc2c(Cc3ccc(Cl)cc3)ccc(CC(=O)O)c2c1` came in with an inhibition in vivo at 30 mg/kg of 52%. Also, the IC50 in experiment [1] was > 100 µM.
With `COc1ccc2c(Cc3ccccc3)ccc(C(C)C(=O)O)c2c1` (stereo unspecified), in [3], the inhibition in vivo at 30 mg/kg is 58%. Moreover, in experiment [4], the inhibition in vivo at 3 mg/kg was found to be 30%. In [1], this compound came in with an IC50 of 1.5 µM.
As for `COc1ccc2c(Cc3ccc(Cl)cc3)cc(CC(=O)O)cc2c1`, in experiment [7], the inhibition result was “inactive”. Further, the IC50 in experiment [1] is > 100 µM.
Usually ED50 stands for the dose at which the effect has come halfway, by size or by number of responders. Lower therefore signals an effect at a small dose. In the case of `COc1ccc2c(Cc3ccc(Cl)cc3)ccc(C(C)C(=O)O)c2c1` (stereo unspecified), the ED50 in experiment [10] was found to be 40 mg/kg. The compound also had an inhibition in vivo at 30 mg/kg in [3] of 50%. Moreover, the half-inhibitory concentration (IC50) in experiment [1] was determined as 4.1 µM.
Turning to `COc1ccc2c(Cc3ccc(F)cc3)ccc(C(C)C(=O)O)c2c1` (stereo unspecified), in experiment [3], the inhibition in vivo at 30 mg/kg worked out at 53%. The compound further came in with an IC50 in [1] of 1.7 µM.
